Biological target: T1, P2X7 receptor (Homo sapiens, UniProt Q99572)
T1 construct: host or cells: THP-1 cells differentiated with LPS and IFN-γ
T1 sequence (Q99572 1-595): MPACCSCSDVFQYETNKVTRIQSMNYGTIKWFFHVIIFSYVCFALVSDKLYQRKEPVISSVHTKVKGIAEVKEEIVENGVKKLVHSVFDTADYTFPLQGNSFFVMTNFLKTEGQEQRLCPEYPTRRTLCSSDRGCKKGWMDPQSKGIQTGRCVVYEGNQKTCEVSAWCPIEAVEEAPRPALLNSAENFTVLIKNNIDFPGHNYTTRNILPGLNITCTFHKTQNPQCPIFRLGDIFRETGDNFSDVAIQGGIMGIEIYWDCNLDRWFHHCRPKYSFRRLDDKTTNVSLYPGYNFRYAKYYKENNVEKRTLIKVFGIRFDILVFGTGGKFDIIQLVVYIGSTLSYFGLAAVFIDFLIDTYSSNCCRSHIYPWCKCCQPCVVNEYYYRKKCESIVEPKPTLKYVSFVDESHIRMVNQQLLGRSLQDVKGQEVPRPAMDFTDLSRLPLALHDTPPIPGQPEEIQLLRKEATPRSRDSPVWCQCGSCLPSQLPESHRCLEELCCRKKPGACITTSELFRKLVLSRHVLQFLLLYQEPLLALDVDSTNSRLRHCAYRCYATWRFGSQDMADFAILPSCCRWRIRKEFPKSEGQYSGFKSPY
Assay: IL-1β release assay in differentiated THP-1 cells stimulated with BzATP (Example 9)
Format: cell-based
Settings: differentiated THP-1 cells, BzATP 250 uM; for inhibition at 0.3 µM: 0.3 μM compound, '+' class symbols, read-out: IL-1β % Inhib. @ 0.3 μM; for inhibition at 0.1 µM: 0.1 μM compound, '*' class symbols, read-out: IL-1β % Inhib. (asterisk classes, 0.1 μM)
Method: THP-1 cells (ATCC Cat # 285-IF-100) are plated in 96 well plates at a concentration of 200,000 cells per well and allowed to differentiate in RPMI-1640 media (ATCC Cat # 30-2001) containing 10% FBS, 100 IU/mL penicillin, 100 ug/mL streptomycin, 100 ng/mL LPS and 100 ng/mL IFN-γ for 16 hours. Following differentiation, the cells are treated for an additional 2 hours in RPMI-1640 media containing 100 IU/mL penicillin, 100 ug/mL streptomycin and fresh LPS at 100 ng/mL. The cells are then pretreated for 30 minutes with the compound of interest at the appropriate concentration in RPMI media containing 100 IU/mL penicillin, 100 ug/mL streptomycin. Following the pretreatment 2′,3′-O-(4-benzoylbenzoyl)-adenosine 5′-triphosphate (Sigma Aldrich Cat # B6396) is added to a final concentration of 250 uM and the cells are incubated for an additional 45 minutes. 30 uL of cell supernatant is then collected and IL-1β levels determined via ELISA (R&D systems Cat. # HSLB50) according to manufacturer's recommendations using the Tecan Safire plate reader. Background adjusted IL-1β levels of drug treated and non-treated cells are used to calculate the percent inhibition.
The compounds set forth in Table 1 were tested for activity in a cellular model as described herein. Specifically, cells were pretreated with differing amounts of the compound under test and released IL-1β determined as in Example 9, above. Measurements were made and IC50 values, presented in Table 2, below, were determined by fitting the data to a four parameter logistic equation using GraphPad Prism software (GraphPad Software, Inc). The equation may be expressed by the following formula: Y=Bottom+(Top−Bottom)/(1+10^((Log EC50−X)*HillSlope)) Where X is the logarithm of concentration, Y is the response and Y starts at Bottom and goes to Top with a sigmoid shape.

| Structure (SMILES) | inhibition at 0.3 µM [%] | inhibition at 0.1 µM [%] |
| --- | --- | --- |
| Cc1ccc(C)c(CC(=O)Nc2cccc3c(=O)n(CC(C)(C)C)ccc23)c1 [Compound 1051] | 0 to 25 |  |
| CCOc1cccc(C(=O)Nc2cccc3c(=O)n(CC(C)(C)C)ccc23)c1 [Compound 1053] | 0 to 25 |  |
| CC(C)(C)Cn1ccc2c(NC(=O)CCc3ccccc3Cl)cccc2c1=O [Compound 1054] | 0 to 25 |  |
| CC(C)(C)Cn1ccc2c(NC(=O)CCc3ccc4c(c3)OCO4)cccc2c1=O [Compound 1055] | 0 to 25 |  |
| Cc1cc(C(=O)Nc2cccc3c(=O)n(CC(C)(C)C)ccc23)ccc1Cl [Compound 1056] | 0 to 25 |  |
| Cc1ccccc1CCC(=O)Nc1cccc2c(=O)n(C)ccc12 [Compound 1057] |  | 0 to 25 |
| COc1cccc(CCC(=O)Nc2cccc3c(=O)n(C)ccc23)c1 [Compound 1058] | 0 to 25 |  |
| CCOc1ccc(C(=O)Nc2cccc3c(=O)n(CCOC)ccc23)c(O)c1 [Compound 1059] |  | 0 to 25 |
| COCCn1ccc2c(NC(=O)c3ccc(OC)cc3C)cccc2c1=O [Compound 1060] | 0 to 25 |  |
| COCCn1ccc2c(NC(=O)C3CCC(C)CC3)cccc2c1=O (centres unmarked) [Compound 1061] | 0 to 25 |  |
| COCCn1ccc2c(NC(=O)CCc3ccccc3C)cccc2c1=O [Compound 1062] |  | 26 to 50 |
| COCCn1ccc2c(NC(=O)c3ccc(-c4ccccc4)o3)cccc2c1=O [Compound 1063] |  | 0 to 25 |
| COCCn1ccc2c(NC(=O)CCc3cccc(OC)c3)cccc2c1=O [Compound 1064] |  | 0 to 25 |
| COCCn1ccc2c(NC(=O)Cc3c(C)cc(C)cc3C)cccc2c1=O [Compound 1065] | 0 to 25 |  |
| COCCn1ccc2c(NC(=O)Cc3cc(C)ccc3C)cccc2c1=O [Compound 1066] | 0 to 25 |  |
| COCCn1ccc2c(NC(=O)c3ccc(OC)c(Cl)c3)cccc2c1=O [Compound 1067] | 26 to 50 |  |
| CCOc1cccc(C(=O)Nc2cccc3c(=O)n(CCOC)ccc23)c1 [Compound 1068] | 0 to 25 |  |
| COCCn1ccc2c(NC(=O)CCc3ccccc3Cl)cccc2c1=O [Compound 1069] | ≥ 76 |  |
| COCCn1ccc2c(NC(=O)CCc3ccc4c(c3)OCO4)cccc2c1=O [Compound 1070] | 0 to 25 |  |
| COCCn1ccc2c(NC(=O)c3ccc(Cl)c(C)c3)cccc2c1=O [Compound 1071] | 0 to 25 |  |
| CCOc1ccc(C(=O)Nc2cccc3c(=O)n(Cc4cccnc4)ccc23)c(O)c1 [Compound 1072] | 0 to 25 |  |

| Structure (SMILES) | inhibition at 0.3 µM [%] | inhibition at 0.1 µM [%] |
| --- | --- | --- |
| COc1ccc(C(=O)Nc2cccc3c(=O)n(Cc4cccnc4)ccc23)c(C)c1 [Compound 1073] | 0 to 25 |  |
| O=C(Nc1cccc2c(=O)n(Cc3cccnc3)ccc12)c1ccc(-c2ccccc2)o1 [Compound 1074] | 0 to 25 |  |
| COc1cccc(CCC(=O)Nc2cccc3c(=O)n(Cc4cccnc4)ccc23)c1 [Compound 1075] | 0 to 25 |  |
| Cc1cc(C)c(CC(=O)Nc2cccc3c(=O)n(Cc4cccnc4)ccc23)c(C)c1 [Compound 1076] | 0 to 25 |  |
| Cc1ccc(C)c(CC(=O)Nc2cccc3c(=O)n(Cc4cccnc4)ccc23)c1 [Compound 1077] | 0 to 25 |  |
| COc1ccc(C(=O)Nc2cccc3c(=O)n(Cc4cccnc4)ccc23)cc1Cl [Compound 1078] | 0 to 25 |  |
| O=C(CCc1ccccc1Cl)Nc1cccc2c(=O)n(Cc3cccnc3)ccc12 [Compound 1079] | 0 to 25 |  |
| O=C(CCc1ccc2c(c1)OCO2)Nc1cccc2c(=O)n(Cc3cccnc3)ccc12 [Compound 1080] | 0 to 25 |  |
| Cc1cc(C(=O)Nc2cccc3c(=O)n(Cc4cccnc4)ccc23)ccc1Cl [Compound 1081] | 0 to 25 |  |
| O=C(Nc1cccc2c(=O)n(CC3CCOCC3)ccc12)c1ccccc1Cl [Compound 1082] | 26 to 50 |  |
| O=C(Nc1cccc2c(=O)n(CC3CCOCC3)ccc12)c1ccc(Cl)cc1Cl [Compound 1083] | 0 to 25 |  |
| O=C(Nc1cccc2c(=O)n(CC3CCOCC3)ccc12)c1cc(Cl)ccc1Cl [Compound 1084] | 0 to 25 |  |
| Cc1ccccc1C(=O)Nc1cccc2c(=O)n(CC3CCOCC3)ccc12 [Compound 1085] | 0 to 25 |  |
| Cc1cccc(C(=O)Nc2cccc3c(=O)n(CC4CCOCC4)ccc23)c1C [Compound 1086] | 0 to 25 |  |
| Cc1ccc(C(=O)Nc2cccc3c(=O)n(CC4CCOCC4)ccc23)c(C)c1 [Compound 1087] | 0 to 25 |  |
| Cc1ccc(C)c(C(=O)Nc2cccc3c(=O)n(CC4CCOCC4)ccc23)c1 [Compound 1088] | 0 to 25 |  |
| COc1cc(OC)cc(C(=O)Nc2cccc3c(=O)n(CC4CCOCC4)ccc23)c1 [Compound 1089] | 0 to 25 |  |
| Cc1cccc(C(=O)Nc2cccc3c(=O)n(CC4CCOCC4)ccc23)c1 [Compound 1090] | 0 to 25 |  |
| CCOc1ccc(C(=O)Nc2cccc3c(=O)n(CC4CCOCC4)ccc23)cc1 [Compound 1091] | 0 to 25 |  |
| CC(C)(C)c1ccc(C(=O)Nc2cccc3c(=O)n(CC4CCOCC4)ccc23)cc1 [Compound 1092] | 0 to 25 |  |
| CC(C(=O)Nc1cccc2c(=O)n(CC3CCOCC3)ccc12)c1ccccc1 (centres unmarked) [Compound 1093] | 0 to 25 |  |

| Structure (SMILES) | inhibition at 0.3 µM [%] | inhibition at 0.1 µM [%] |
| --- | --- | --- |
| COc1ccccc1CCC(=O)Nc1cccc2c(=O)n(CC3CCOCC3)ccc12 [Compound 1094] | 0 to 25 |  |
| COc1ccc(CCC(=O)Nc2cccc3c(=O)n(CC4CCOCC4)ccc23)cc1 [Compound 1095] | 0 to 25 |  |
| O=C(Nc1cccc2c(=O)n(CC3CCOCC3)ccc12)c1cccc2ccccc12 [Compound 1096] | 0 to 25 |  |
| O=C(Nc1cccc2c(=O)n(CC3CCOCC3)ccc12)c1ccc2ccccc2c1 [Compound 1098] | 0 to 25 |  |
| COc1ccccc1CC(=O)Nc1cccc2c(=O)n(CC3CCOCC3)ccc12 [Compound 1099] | 0 to 25 |  |
| COc1ccc(OC)c(CC(=O)Nc2cccc3c(=O)n(CC4CCOCC4)ccc23)c1 [Compound 1100] | 0 to 25 |  |
| Cc1ccccc1CC(=O)Nc1cccc2c(=O)n(CC3CCOCC3)ccc12 [Compound 1101] | 0 to 25 |  |
| COc1cccc(CC(=O)Nc2cccc3c(=O)n(CC4CCOCC4)ccc23)c1 [Compound 1102] | 0 to 25 |  |
| COc1ccc(CC(=O)Nc2cccc3c(=O)n(CC4CCOCC4)ccc23)cc1OC [Compound 1103] | 0 to 25 |  |
| Cc1cccc(CC(=O)Nc2cccc3c(=O)n(CC4CCOCC4)ccc23)c1 [Compound 1104] | 0 to 25 |  |
| COc1ccc(CC(=O)Nc2cccc3c(=O)n(CC4CCOCC4)ccc23)cc1 [Compound 1105] | 0 to 25 |  |
| CCOc1ccc(CC(=O)Nc2cccc3c(=O)n(CC4CCOCC4)ccc23)cc1 [Compound 1106] | 0 to 25 |  |
| Cc1ccc(CC(=O)Nc2cccc3c(=O)n(CC4CCOCC4)ccc23)cc1 [Compound 1107] | 0 to 25 |  |
| O=C(CCCc1ccccc1)Nc1cccc2c(=O)n(CC3CCOCC3)ccc12 [Compound 1108] | 0 to 25 |  |
| O=C(Nc1cccc2c(=O)n(CC3CCOCC3)ccc12)c1cc2ccccc2o1 [Compound 1109] | 0 to 25 |  |
| O=C(Cc1ccc2c(c1)OCO2)Nc1cccc2c(=O)n(CC3CCOCC3)ccc12 [Compound 1110] | 0 to 25 |  |
| COc1cc(CC(=O)Nc2cccc3c(=O)n(CC4CCOCC4)ccc23)cc(OC)c1 [Compound 1111] | 0 to 25 |  |
| COc1c(C)cc(C(=O)Nc2cccc3c(=O)n(CC4CCOCC4)ccc23)cc1C [Compound 1112] | 0 to 25 |  |
| Cc1ccc(C(=O)Nc2cccc3c(=O)n(CC4CCOCC4)ccc23)cc1Cl [Compound 1113] | 0 to 25 |  |
| Cc1cc(Cl)ccc1C(=O)Nc1cccc2c(=O)n(CC3CCOCC3)ccc12 [Compound 1114] | 0 to 25 |  |

Source: patent publication US8546579B2, “Bicycloheteroaryl compounds as P2X7 modulators and uses thereof” (Evotec (US) Inc., priority 2006, dated 2013)
